Reference: patent US11247985B2, “Phenyl indole allosteric inhibitors of P97 ATPase” (University of Pittsburgh—Of the Commonwealth System of …, priority 2015, dated 2022)

target: p97 ATPase WT (Homo sapiens (Human), UniProt P55072); assay: p97 ADP-Glo assay; format: biochemical; conditions: Table 3; read-out: ADPGlo IC50
Source text: ADP-Glo™ (Promega Corp.) is a bioluminescent, homogeneous assay that measures ADP formed from a biochemical reactions. Because of its high sensitivity, the assay is suitable for monitoring enzyme activities at very early substrate conversions requiring very low amount of enzymes.
The ADP-Glo assay can be conducted as described in Chou, T.-F.; Bulfer, S. L.; Weihl, C.

Sequence of p97 ATPase WT (P55072 whole entry): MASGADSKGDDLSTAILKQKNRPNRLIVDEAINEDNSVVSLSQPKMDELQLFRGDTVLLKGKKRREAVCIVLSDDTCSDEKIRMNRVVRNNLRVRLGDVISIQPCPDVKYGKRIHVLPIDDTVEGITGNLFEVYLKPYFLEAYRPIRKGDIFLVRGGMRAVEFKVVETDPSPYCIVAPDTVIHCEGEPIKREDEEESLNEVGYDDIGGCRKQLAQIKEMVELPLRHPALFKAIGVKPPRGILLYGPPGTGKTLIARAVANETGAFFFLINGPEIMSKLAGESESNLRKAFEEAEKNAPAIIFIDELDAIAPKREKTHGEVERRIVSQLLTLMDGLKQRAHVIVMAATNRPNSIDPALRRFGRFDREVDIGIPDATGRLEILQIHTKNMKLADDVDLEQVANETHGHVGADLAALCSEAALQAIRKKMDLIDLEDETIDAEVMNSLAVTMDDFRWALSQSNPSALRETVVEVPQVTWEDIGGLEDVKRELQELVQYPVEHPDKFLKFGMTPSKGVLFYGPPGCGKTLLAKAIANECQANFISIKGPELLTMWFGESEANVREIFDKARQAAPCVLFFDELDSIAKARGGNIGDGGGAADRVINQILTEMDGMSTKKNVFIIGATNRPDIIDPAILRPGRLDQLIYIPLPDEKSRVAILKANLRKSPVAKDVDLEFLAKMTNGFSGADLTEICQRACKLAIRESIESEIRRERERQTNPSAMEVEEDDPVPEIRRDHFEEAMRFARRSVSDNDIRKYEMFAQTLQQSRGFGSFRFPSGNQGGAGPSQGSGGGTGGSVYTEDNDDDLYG

Compared with `CCN1CCN(CCNC2CCN(c3cccc(-c4cc5ccccc5[nH]4)c3)CC2)CC1`, `CN1CCN(CCNC2CCN(c3cccc(-c4cc5ccccc5[nH]4)c3)CC2)CC1` is 2-fold higher in IC50: 190 nM for the first, 380 nM for the second. The first is the more potent here.

`CCC(C)N1CCN(CCNC2CCN(c3cccc(-c4cc5ccccc5[nH]4)c3)CC2)CC1` (stereo not shown) and `CC(C)N1CCCN(CCNC2CCN(c3cccc(-c4cc5ccccc5[nH]4)c3)CC2)CC1` are within 1.5-fold of each other in IC50: 110 nM for the first, 150 nM for the second.

Compared with `FC1(F)CCN(CCNC2CCN(c3cccc(-c4cc5ccccc5[nH]4)c3)CC2)CC1`, `c1cc(-c2cc3ccccc3[nH]2)cc(N2CCC(NCCN3CCCC3)CC2)c1` is 2.7-fold lower in IC50: 2400 nM for the first, 880 nM for the second.

`COC(=O)CCNC1CCN(c2cccc(-c3cc4ccccc4[nH]3)c2)CC1` and `COC(=O)CCNC1CCN(c2cccc(-c3cc4cc(F)ccc4[nH]3)c2)CC1` are within 1.5-fold of each other in IC50: 1000 nM for the first, 1300 nM for the second.

`CC(C)N1CCN(CCNC2CCN(c3cccc(-c4cc5ccc(C#N)cc5[nH]4)c3)CC2)CC1` and `CC(C)N1CCN(CCNC2CCN(c3cccc(-c4cc5ccc(N)cc5[nH]4)c3)CC2)CC1` are within 1.5-fold of each other in IC50: 6100 nM for the first, 5200 nM for the second.

Going from `CCCCNC1CCN(c2cccc(-c3cc4ccccc4[nH]3)c2)CC1` to `c1cc(-c2cc3ccccc3[nH]2)cc(N2CCC(NCCCN3CCOCC3)CC2)c1`, the IC50 falls from 1700 nM to 800 nM (2.1-fold). The second is the more potent here.

`CC(C)N1CCN(CCNC2CCN(c3cccc(-c4cc5ccccc5s4)c3)CC2)CC1` and `CC(C)N1CCN(CCNC2CCN(c3cccc(-c4cc5ccccc5o4)c3)CC2)CC1` are within 1.5-fold of each other in IC50: 24000 nM for the first, 20000 nM for the second.

Going from `O=C(Nc1ccccn1)C1CCN(c2cccc(-c3cc4cc(F)ccc4[nH]3)c2)CC1` to `Fc1ccc2[nH]c(-c3cccc(N4CCC(NCc5cccnc5)CC4)c3)cc2c1`, the IC50 falls from 9700 nM to 340 nM (29-fold). The second is the more potent here.

`c1ccc(CNC2CCN(c3cccc(-c4cc5ccccc5[nH]4)c3)CC2)nc1` and `c1ccc(CNC2CCN(c3cccc(-c4cc5ccccc5[nH]4)c3)CC2)cc1` are within 1.5-fold of each other in IC50: 1000 nM for the first, 960 nM for the second.

First: CC(C)N1CCN(CCNC2CCN(c3cccc(-c4ccc5ccccc5c4)c3)CC2)CC1
Second: CC(C)N1CCN(CCNC2CCN(c3cccc(-c4cc5cc(F)ccc5[nH]4)c3)CC2)CC1
The IC50 of the first is 190-fold higher: 5100 nM for the first, 27 nM for the second.

`CC(C)N1CCN(C(=O)CCNC2CCN(c3cccc(-c4cc5cc(C#N)ccc5[nH]4)c3)CC2)CC1` and `CC(C)N1CCN(C(=O)CCNC2CCN(c3cccc(-c4cc5cc(F)ccc5[nH]4)c3)CC2)CC1` are within 1.5-fold of each other in IC50: 150 nM for the first, 120 nM for the second.

Going from `c1cc(-c2cc3ccccc3[nH]2)cc(N2CCC(NCc3ccncc3)CC2)c1` to `Cn1ncnc1CCNC1CCN(c2cccc(-c3cc4ccccc4[nH]3)c2)CC1`, the IC50 falls from 1400 nM to 810 nM (1.7-fold).

`Cn1ncnc1CCNC1CCN(c2cccc(-c3cc4cc(F)ccc4[nH]3)c2)CC1` and `Cn1ncnc1CCNC1CCN(c2cccc(-c3cc4cc(C#N)ccc4[nH]3)c2)CC1` are within 1.5-fold of each other in IC50: 1300 nM for the first, 890 nM for the second.

Going from `CC(C)N1CCN(CCNC2CCN(c3cccc(-c4cc5ccc([N+](=O)[O-])cc5[nH]4)c3)CC2)CC1` to `CC(C)N1CCN(CCNC2CCN(c3cccc(-c4cc5cc([N+](=O)[O-])ccc5[nH]4)c3)CC2)CC1` [drawing 222], the IC50 falls from 4600 nM to 36 nM (130-fold). The second is the more potent here.

Going from `CC(C)N1CCN(CCNC2CCN(c3cccc(-c4cc5cc(OC(F)(F)F)ccc5[nH]4)c3)CC2)CC1` to `COc1ccc2[nH]c(-c3cccc(N4CCC(NCCN5CCN(C(C)C)CC5)CC4)c3)cc2c1`, the IC50 falls from 3700 nM to 660 nM (5.6-fold).

Compared with `CC(C)N1CCC(NC2CCN(c3nnc(-c4cc5cc(F)ccc5[nH]4)o3)CC2)CC1`, `CC(C)N1CCC(NC2CCN(c3cccc(-c4cc5cc(F)ccc5[nH]4)c3)CC2)CC1` is 320-fold lower in IC50: 15800 nM for the first, 49 nM for the second. The second is the more potent here.

Compared with `CC(C)N1CCN(CCNC2CCN(c3cccc(-c4cc5cc(C(N)=O)ccc5[nH]4)c3)CC2)CC1`, `COC(=O)c1ccc2[nH]c(-c3cccc(N4CCC(NCCN5CCN(C(C)C)CC5)CC4)c3)cc2c1` is 1.7-fold higher in IC50: 87 nM for the first, 150 nM for the second.

First: CC(C)N1CCN(C2(CNC3CCN(c4cccc(-c5cc6cc(C#N)ccc6[nH]5)c4)CC3)COC2)CC1
Second: CC(C)N1CCN(C2(CNC3CCN(c4cccc(-c5cc6cc(F)ccc6[nH]5)c4)CC3)COC2)CC1
The IC50 of the first is 2.7-fold higher: 110 nM for the first, 41 nM for the second. The second is the more potent here.

`NC(=O)CCNC1CCN(c2cccc(-c3cc4cc(F)ccc4[nH]3)c2)CC1` and `CNC(=O)CCNC1CCN(c2cccc(-c3cc4cc(F)ccc4[nH]3)c2)CC1` are within 1.5-fold of each other in IC50: 760 nM for the first, 630 nM for the second.

`CCN(CC)C(=O)CCNC1CCN(c2cccc(-c3cc4cc(F)ccc4[nH]3)c2)CC1` and `CN(C)CCNC1CCN(c2cccc(-c3cc4cc(F)ccc4[nH]3)c2)CC1` are within 1.5-fold of each other in IC50: 670 nM for the first, 710 nM for the second.

Compared with `CC(C)N1CCC(NC2CCN(c3cccc(-c4cc5cc(C#N)ccc5[nH]4)c3)CC2)CC1` [drawing 239], `Cc1ccc(N2CCC(NC3CCN(C(C)C)CC3)CC2)cc1-c1cc2cc(C#N)ccc2[nH]1` is 45-fold lower in IC50: 4900 nM for the first, 110 nM for the second. The second is the more potent here.

First: CON(C)C(=O)c1ccc2[nH]c(-c3cccc(N4CCC(NCCN5CCN(C(C)C)CC5)CC4)c3)cc2c1
Second: CNC(=O)c1ccc2[nH]c(-c3cccc(N4CCC(NCCN5CCN(C(C)C)CC5)CC4)c3)cc2c1
The IC50 of the first is 37-fold higher: 16000 nM for the first, 430 nM for the second. The second is the more potent here.

Going from `CC1CCN(CCNC2CCN(c3cccc(-c4cc5ccccc5[nH]4)c3)CC2)CC1` to `c1cc(-c2cc3ccccc3[nH]2)cc(N2CCC(NCCN3CCNCC3)CC2)c1`, the IC50 falls from 800 nM to 310 nM (2.6-fold).

Compared with `Cc1ccc(N2CCC(NCCN3CCN(C(C)C)CC3)CC2)cc1-c1[nH]c2ccccc2c1C`, `CC(C)N1CCN(CCNC2CCN(c3cncc(-c4cc5ccccc5[nH]4)c3)CC2)CC1` is 2.9-fold lower in IC50: 23000 nM for the first, 8000 nM for the second. The second is the more potent here.

`CC(C)N1CCN(CCNC(=O)CC2CCN(c3cccc(-c4cc5ccccc5[nH]4)c3)CC2)CC1` and `CC(C)N1CCN(CCNC(=O)C=C2CCN(c3cccc(-c4cc5ccccc5[nH]4)c3)CC2)CC1` are within 1.5-fold of each other in IC50: 7340 nM for the first, 7580 nM for the second.

First: CN1CCN(C2(CNC3CCN(c4cccc(-c5cc6cc(S(C)(=O)=O)ccc6[nH]5)c4)CC3)CCC2)CC1
Second: CN1CCN(C2(CNC3CCN(c4cccc(-c5cc6cc(Cl)ccc6[nH]5)c4)CC3)CCC2)CC1
The IC50 of the first is 150-fold higher: 16000 nM for the first, 110 nM for the second. The second is the more potent here.

Going from `CC(C)N1CCN(CCNC2CCN(c3cccc(-c4cc5ccccc5[nH]4)c3)CC2)C(=O)C1` to `CC(C)N1CCN(CCNC2CCN(c3cccc(-c4cc5cnccc5[nH]4)c3)CC2)CC1`, the IC50 rises from 1900 nM to 3800 nM (2-fold).

Compared with `CN1CCN(C2(CNC3CCN(c4cccc(-c5cc6ccccc6[nH]5)c4)CC3)CCC2)CC1`, `CN1CCN(C2(CNC3CCN(c4cccc(-c5cc6ccccc6[nH]5)c4)CC3)CCCCC2)CC1` is 1.9-fold higher in IC50: 140 nM for the first, 260 nM for the second.

First: CC(C)[C@H]1CC[C@H](NC2CCN(c3cccc(-c4cc5cc(C#N)ccc5[nH]4)c3)CC2)CC1
Second: CC(C)N1CCC(NC2CCN(c3cccc(-c4cc5cc(C#N)ccc5[nH]4)c3)CC2)CC1 [drawing 226]
The IC50 of the first is 130-fold higher: 6200 nM for the first, 47 nM for the second. The second is the more potent here.

Compared with `CN1CCN(C2(CNC3CCN(c4cccc(-c5cc6cc(C#N)ccc6[nH]5)c4)CC3)CCC2)CC1`, `CN1CCN(C(=O)CCNC2CCN(c3cccc(-c4cc5cc(F)ccc5[nH]4)c3)CC2)CC1` is 5.8-fold higher in IC50: 26 nM for the first, 150 nM for the second. The first is the more potent here.

Going from `Cc1ccc(N2CCC(NC3CCN(C)CC3)CC2)cc1-c1cc2cc(F)ccc2[nH]1` to `CC(C)N1CCC(NC2CCN(c3cccc(-c4cc5cc(S(=O)(=O)NC(C)(C)C)ccc5[nH]4)c3)CC2)CC1`, the IC50 rises from 82 nM to 14000 nM (170-fold).

Going from `CN(C)CCNC1CCN(c2cccc(-c3cc4cc(C#N)ccc4[nH]3)c2)CC1` to `O=C(CCNC1CCN(c2cccc(-c3cc4cc(F)ccc4[nH]3)c2)CC1)N1CCCCC1`, the IC50 rises from 460 nM to 1400 nM (3-fold).

First: NC1CCN(c2cccc(-c3cc4ccccc4[nH]3)c2)CC1
Second: c1ccc(CN2CCN(CCNC3CCN(c4cccc(-c5cc6ccccc6[nH]5)c4)CC3)CC2)cc1
The IC50 of the first is 6-fold higher: 1800 nM for the first, 300 nM for the second.

For `CC(C)N1CCN(CCNC2CCN(c3cccc(NC(=O)OCc4ccccc4)c3)CC2)CC1`, the IC50 was 1700 nM.
